Values of other authors, collected in patent publication US11981760B2, “Therapeutic hydrogels and contact lens for corneal melting” (THE REGENTS OF THE UNIVERSITY OF COLORADO, priority 2018, dated 2024).

## c1ccc(CNCc2ccccn2)nc1 [DPA, dipicolylamine]
Ca^2+, Mg^2+, Na^+ and K^+
  association with other metal ions: does not associate strongly
five-membered chelate ring, read-out: Kd of Zn^2+ complexation
  Kd: ~0.01 nM
